Experimental data reported in US10174037B2, “Dihydropyrazolopyrimidinone compounds as PDE2 inhibitors” (Merck Sharp & Dohme Corp., priority 2015, dated 2019).

Target: human PDE2A1 (Homo sapiens (Human), UniProt O00408)
Experiment: PDE selectivity IMAP FP assay, human PDE2A1
Type: biochemical
Conditions: Human PDE2; Lab B; read-out: Human PDE2 Ki (nM) Lab B
Experimental: Selectivity for PDE2, as compared to other PDE families, was assessed using the IMAP® technology. Human PDE10A2 enzyme was prepared from cytosolic fractions of transiently transfected HEK cells.
A Labcyte POD 810 (Labcyte, Sunnyvale, Calif.) was used to dispense 200 nL from each well of the titration plate to make eleven copies of the assay plate for each titration, one copy for each PDE enzyme. A solution of each enzyme (dilution from aliquots, sufficient to produce 20% substrate conversion) and a separate solution of FAM-labeled cAMP or FAM-labeled cGMP from Molecular Devices (Sunnyvale, Calif., product # R7506 or cGMP#R7508), at a final concentration of 50 nM were made in the assay buffer (10 mM Tris HCl, pH 7.2, 10 mM MgCl2, 0.05% NaN3 0.01% Tween-20, and 1 mM DTT). Note that the substrate for PDE2 is 50 nM FAM cAMP containing 1000 nM of cGMP. The enzyme and the substrate were then added to the assay plates in two consecutive additions of 10 μL and then shaken to mix. The reaction was allowed to proceed at room temperature for 60 minutes. A binding solution was then made from the kit components, comprised of 80% Solution A, 20% Solution B and binding reagent at a volume of 1/600 the total binding solution. The enzymatic reaction was stopped by addition of 60 μL of the binding solution to each well of the assay plate. […] The plates were incubated at room temperature for one hour, then the parallel and perpendicular fluorescence was measured using a Tecan Genios Pro plate reader (Tecan, Switzerland). […] The intrinsic PDE2 inhibitory activity of a compound which may be used in accordance with the present invention may be determined by these assays. […]
The PDE2 Ki is a measure of the ability of the test compound to inhibit the action of the PDE2 enzyme.

human PDE2A1, sequence (O00408 other isoform, or with tags, fused parts or gaps): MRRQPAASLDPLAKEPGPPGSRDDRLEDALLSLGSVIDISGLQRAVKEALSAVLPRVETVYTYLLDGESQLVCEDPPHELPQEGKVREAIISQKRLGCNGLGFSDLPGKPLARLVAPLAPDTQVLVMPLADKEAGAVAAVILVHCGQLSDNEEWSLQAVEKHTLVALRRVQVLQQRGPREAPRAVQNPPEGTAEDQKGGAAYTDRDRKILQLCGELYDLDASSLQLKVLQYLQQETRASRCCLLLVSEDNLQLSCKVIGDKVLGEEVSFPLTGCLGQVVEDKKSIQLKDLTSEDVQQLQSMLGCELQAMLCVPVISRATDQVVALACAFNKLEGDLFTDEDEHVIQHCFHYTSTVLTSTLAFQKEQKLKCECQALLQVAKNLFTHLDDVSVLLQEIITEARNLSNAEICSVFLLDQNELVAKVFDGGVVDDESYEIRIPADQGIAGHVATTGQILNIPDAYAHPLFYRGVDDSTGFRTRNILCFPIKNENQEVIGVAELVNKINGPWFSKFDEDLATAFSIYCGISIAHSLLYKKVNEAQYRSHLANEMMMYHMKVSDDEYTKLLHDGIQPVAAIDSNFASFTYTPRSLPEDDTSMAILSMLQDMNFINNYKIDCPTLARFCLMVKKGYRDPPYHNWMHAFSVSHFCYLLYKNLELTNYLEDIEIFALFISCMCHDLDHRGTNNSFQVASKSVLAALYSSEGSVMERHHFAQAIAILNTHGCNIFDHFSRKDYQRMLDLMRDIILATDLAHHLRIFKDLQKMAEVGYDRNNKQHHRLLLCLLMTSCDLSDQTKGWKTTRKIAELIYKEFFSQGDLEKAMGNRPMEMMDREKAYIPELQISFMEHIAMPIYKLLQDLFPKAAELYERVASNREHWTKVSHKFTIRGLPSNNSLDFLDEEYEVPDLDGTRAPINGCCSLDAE

Ki [nM] | Compound
529 | CC(c1ccc(OC(F)F)c(Cl)c1)n1nc(C(F)(F)F)c2c(=O)[nH]c(O)nc21 (single isomer, unassigned) [Example 325, (R)- or (S)-1-(1-(3-Chloro-4-(difluoromethoxy)phenyl)ethyl)-6-hydroxy-3-(trifluoromethyl)-1H-pyrazolo[3,4-d]pyrimidin-4(5H)-one]
1.9 | CCC(c1ccc(C(C)(F)F)cc1)n1nc(CO)c2c(=O)[nH]c(N(C)C)nc21 (single isomer, unassigned) [Example 136, (R)- or (S)-1-(1-(4-(1,1-Difluoroethyl)phenyl)propyl)-6-(dimethylamino)-3-(hydroxymethyl)-1H-pyrazolo[3,4-d]pyrimidin-4(5H)-one]
2.3 | CC(C)C(c1ccc(C(F)(F)F)cc1)n1nc(C(F)(F)F)c2c(=O)[nH]c(O)nc21 (single isomer, unassigned) [Example 334, (S)- or (R)-6-Hydroxy-1-(2-methyl-1-(4-(trifluoromethyl)phenyl)propyl)-3-(trifluoromethyl)-1H-pyrazolo[3,4-d]pyrimidin-4(5H)-one]
6.8 | CC(c1ccc(OC(F)F)c(F)c1)n1nc(C(F)(F)F)c2c(=O)[nH]c(O)nc21 (single isomer, unassigned) [Example 324, (S)- or (R)-1-(1-(4-(Difluoromethoxy)-3-fluorophenyl)ethyl)-6-hydroxy-3-(trifluoromethyl)-1H-pyrazolo[3,4-d]pyrimidin-4(5H)-one]
1.2 | CC(C)C(c1ccc(C(F)(F)F)cc1F)n1nc(CF)c2c(=O)[nH]c(N(C)C)nc21 (single isomer, unassigned) [Example 201, (S)- or (R)-6-(Dimethylamino)-1-(1-(2-fluoro-4-(trifluoromethyl)phenyl)-2-methylpropyl)-3-(fluoromethyl)-1H-pyrazolo[3,4-d]pyrimidin-4(5H)-one]
50 | CC(c1ccc(C(F)(F)C(F)(F)F)cc1)n1nc(CO)c2c(=O)[nH]c(O)nc21 (single isomer, unassigned) [Example 31, (R)- or (S)-6-Hydroxy-3-(hydroxymethyl)-1-(1-(4-(perfluoroethyl)phenyl)ethyl)-1H-pyrazolo[3,4-d]pyrimidin-4(5H)-one]
145 | CC(c1ccc(OC(F)(F)F)c(Cl)c1)n1nc(C(F)(F)F)c2c(=O)[nH]c(O)nc21 (single isomer, unassigned) [Example 321, (R)- or (S)-1-(1-(3-Chloro-4-(trifluoromethoxy)phenyl)ethyl)-6-hydroxy-3-(trifluoromethyl)-1H-pyrazolo[3,4-d]pyrimidin-4(5H)-one]
911 | O=c1[nH]c(O)nc2c1c(C(F)F)nn2C(CC(F)(F)F)c1ccc(C(F)(F)F)cc1 (single isomer, unassigned) [Example 271]
0.14 | CN(C)c1nc2c(c(CO)nn2C(c2ccc(C(C)(F)F)c(F)c2)C2CC2)c(=O)[nH]1 (single isomer, unassigned) [Example 350, (R)- or (S)-1-(Cyclopropyl(4-(1,1-difluoroethyl)-3-fluorophenyl)methyl)-6-(dimethylamino)-3-(hydroxymethyl)-1H-pyrazolo[3,4-d]pyrimidin-4(5H)-one]
342 | CC1(C(c2ccc(C(F)(F)F)cc2)n2nc(CO)c3c(=O)[nH]c(O)nc32)CC1 (single isomer, unassigned) [Example 4]
0.1 | CCC(c1ccc(OC(F)F)cc1F)n1nc(CF)c2c(=O)[nH]c(N(C)C)nc21 (single isomer, unassigned) [Example 342, (R)- or (S)-1-(1-(4-(Difluoromethoxy)-2-fluorophenyl)propyl)-6-(dimethylamino)-3-(fluoromethyl)-1H-pyrazolo[3,4-d]pyrimidin-4(5H)-one]
2360 | CC(C)(C)C(c1ccc(C(F)(F)F)cc1)n1nc(C(F)(F)F)c2c(=O)[nH]c(O)nc21 (single isomer, unassigned) [Example 337, (R)- or (S)-1-(2,2-Dimethyl-1-(4-(trifluoromethyl)phenyl)propyl)-6-hydroxy-3-(trifluoromethyl)-1H-pyrazolo[3,4-d]pyrimidin-4(5H)-one]
5.3 | CNc1nc2c(c(CO)nn2C(c2ccc(C(C)(F)F)cc2)C(C)C)c(=O)[nH]1 (single isomer, unassigned) [Example 358]
2.8 | CCC(c1ccc(C(C)(F)F)cc1F)n1nc(CO)c2c(=O)[nH]c(N(C)C)nc21 (single isomer, unassigned) [Example 110, (R)- or (S)-1-(1-(4-(1,1-Difluoroethyl)-2-fluorophenyl)propyl)-6-(dimethylamino)-3-(hydroxymethyl)-1H-pyrazolo[3,4-d]pyrimidin-4(5H)-one]
330 | CC(c1ccc(C(F)(F)F)cc1F)n1nc(C(F)(F)F)c2c(=O)[nH]c(O)nc21 (single isomer, unassigned) [Example 306]
36 | CC(c1ccc(OC(F)(F)F)c(F)c1)n1nc(C(F)(F)F)c2c(=O)[nH]c(O)nc21 (single isomer, unassigned) [Example 310, (S)- or (R)-1-{1-[3-Fluoro-4-(trifluoromethoxy)phenyl]ethyl}-6-hydroxy-3-(trifluoromethyl)-1,5-dihydro-4H-pyrazolo[3,4-d]pyrimidin-4-one]
1.9 | CC(c1ccc(C(F)(F)F)cc1F)n1nc(C(F)(F)F)c2c(=O)[nH]c(O)nc21 (single isomer, unassigned) [Example 305]
373 | CC(C)(C)C(c1ccc(C(F)(F)F)cc1)n1nc(C(F)(F)F)c2c(=O)[nH]c(O)nc21 (single isomer, unassigned) [Example 338, (S)- or (R)-1-(2,2-Dimethyl-1-(4-(trifluoromethyl)phenyl)propyl)-6-hydroxy-3-(trifluoromethyl)-1H-pyrazolo[3,4-d]pyrimidin-4(5H)-one]
10 | CC(c1ccc(OC(F)(F)F)cc1F)n1nc(C(F)(F)F)c2c(=O)[nH]c(O)nc21 (single isomer, unassigned) [Example 307, (R)- or (S)-1-{1-[2-Fluoro-4-(trifluoro-methoxy)phenyl]ethyl}-6-hydroxy-3-(trifluoromethyl)-1,5-dihydro-4H-pyrazolo-[3,4-d]pyrimidin-4-one]
6.3 | CCC(c1ccc(C(F)F)c(F)c1)n1nc(CF)c2c(=O)[nH]c(N(C)C)nc21 (single isomer, unassigned) [Example 344, (R)- or (S)-1-(1-(4-(Difluoromethyl)-3-fluorophenyl)propyl)-6-(dimethylamino)-3-(fluoromethyl)-1H-pyrazolo[3,4-d]pyrimidin-4(5H)-one]
2.2 | CC(c1ccc(C(F)(F)F)c(F)c1)n1nc(C(F)(F)F)c2c(=O)[nH]c(O)nc21 (single isomer, unassigned) [Example 313, (R)- or (S)-1-{1-[3-Fluoro-4-(trifluoromethyl)phenyl]ethyl}-6-hydroxy-3-(trifluoromethyl)-1,5-dihydro-4H-pyrazolo[3,4-d]pyrimidin-4-one]
0.02 | CN(C)c1nc2c(c(CO)nn2C(c2ccc(C(C)(F)F)c(F)c2)C2CC2)c(=O)[nH]1 (single isomer, unassigned) [Example 351, (S)- or (R)-1-(Cyclopropyl(4-(1,1-difluoroethyl)-3-fluorophenyl)methyl)-6-(dimethylamino)-3-(hydroxymethyl)-1H-pyrazolo[3,4-d]pyrimidin-4(5H)-one]
4.9 | CC(c1ccc(S(F)(F)(F)(F)F)cc1)n1nc(C(F)(F)F)c2c(=O)[nH]c(O)nc21 (single isomer, unassigned) [Example 311, (R)- or (S)-6-Hydroxy-1-{1-[4-(pentafluoro-lambda~6-sulfanyl)phenyl]ethyl}-3-(trifluoromethyl)-1,5-dihydro-4H-pyrazolo[3,4-d]pyrimidin-4-one]
304 | CC(c1ccc(OC(F)F)c(F)c1)n1nc(C(F)(F)F)c2c(=O)[nH]c(O)nc21 (single isomer, unassigned) [Example 323, (R)- or (S)-1-(1-(4-(Difluoromethoxy)-3-fluorophenyl)ethyl)-6-hydroxy-3-(trifluoromethyl)-1H-pyrazolo[3,4-d]pyrimidin-4(5H)-one]
0.39 | CC(c1ccc(CC(F)(F)F)cc1)n1nc(CF)c2c(=O)[nH]c(N(C)C)nc21 (single isomer, unassigned) [Example 175, (S)- or (R)-6-(Dimethylamino)-3-(fluoromethyl)-1-(1-(4-(2,2,2-trifluoroethyl)phenyl)ethyl)-1H-pyrazolo[3,4-d]pyrimidin-4(5H)-one]
0.68 | CC(C)C(c1ccc(C(C)(F)F)cc1)n1nc(CO)c2c(=O)[nH]c(N)nc21 (single isomer, unassigned) [Example 356]

Compound | Ki [nM]
C[C@@H](c1ccc(C(F)(F)F)cc1)n1nc(C(F)F)c2c(=O)[nH]c(N3CCC3)nc21 [compound 290, 6-Azetidin-1-yl-3-(difluoromethyl)-1-{(1S)-1-[4-(trifluoromethyl)phenyl]ethyl}-1,5-dihydro-4H-pyrazolo[3,4-d]pyrimidin-4-one] | 0.26
